Measured values: patent US12077503B2, “Substituted cyclic amides and their use as herbicides” (FMC CORPORATION, priority 2015, dated 2024)

How the values were obtained:
Assay type in all cases: in vivo
Kochia (Kochia scoparia) [1] = test: Test A preemergence; conditions: Bassia scoparia, pre-emergence, 240 h, 0 to 100 scale where 0 is no effect and 100 is complete control, read-out: Kochia plant response rating; for pest or weed control at 31 g/ha: 31 g ai/ha, Preemergence; for pest or weed control at 125 g/ha: 125 g ai/ha, preemergence, approx. 10 d
Method in brief: (§1)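 Greenhouse, ~10 d after spray; visual injury vs untreated controls, 0 = no effect, 100 = complete control. Preemergence: directed soil spray over planted seeds. Postemergence: plants 2–10 cm, 1–2 leaf stage. Loam/sand blend. Compound in non-phytotoxic solvent with surfactant.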

[2] = test system: barnyardgrass (Echinochloa crus-galli); test: Test A preemergence; conditions: Echinochloa crus-galli, pre-emergence, 240 h, 0 to 100 scale where 0 is no effect and 100 is complete control, read-out: Barnyardgrass plant response rating; for pest or weed control at 31 g/ha: 31 g ai/ha, Preemergence; for pest or weed control at 125 g/ha: 125 g ai/ha, preemergence, approx. 10 d
Method in brief: as §1

[3] = test system: giant foxtail (Setaria faberii); test: Test A preemergence; conditions: Setaria faberi, pre-emergence, 240 h, 0 to 100 scale where 0 is no effect and 100 is complete control, read-out: Foxtail, Giant plant response rating; for pest or weed control at 31 g/ha: 31 g ai/ha, Preemergence; for pest or weed control at 125 g/ha: 125 g ai/ha, preemergence, approx. 10 d
Method in brief: as §1

[4] = test system: pigweed (Amaranthus retroflexus); test: Test A preemergence; conditions: Amaranthus retroflexus, pre-emergence, 240 h, 0 to 100 scale where 0 is no effect and 100 is complete control, read-out: Pigweed plant response rating; for pest or weed control at 31 g/ha: 31 g ai/ha, Preemergence; for pest or weed control at 125 g/ha: 125 g ai/ha, preemergence, approx. 10 d
[5] = test system: ragweed (common ragweed, Ambrosia elatior); test: Test A preemergence; conditions: Ambrosia artemisiifolia, pre-emergence, 240 h, 0 to 100 scale where 0 is no effect and 100 is complete control, read-out: Ragweed plant response rating; for pest or weed control at 31 g/ha: 31 g ai/ha, Preemergence; for pest or weed control at 125 g/ha: 125 g ai/ha, preemergence, approx. 10 d
Method in brief: as §1

[6] = test system: ryegrass, Italian (Italian ryegrass, Lolium multiflorum); test: Test A preemergence; conditions: Lolium multiflorum, pre-emergence, 240 h, 0 to 100 scale where 0 is no effect and 100 is complete control, read-out: Ryegrass, Italian plant response rating; for pest or weed control at 31 g/ha: 31 g ai/ha, Preemergence; for pest or weed control at 125 g/ha: 125 g ai/ha, preemergence, approx. 10 d
Method in brief: as §1

Kochia (Kochia scoparia) [7] = test: Test A postemergence; conditions: Bassia scoparia, post-emergence, 240 h; for pest or weed control at 125 g/ha: 125 g ai/ha, postemergence, visual injury on 0 to 100 scale (0 no effect, 100 complete control), approx. 10 d, read-out: Kochia plant response rating; for pest or weed control at 31 g/ha: Postemergence, 31 g ai/ha, visual injury after approx. 10 d, 0 to 100 scale, 0 no effect, 100 complete control, read-out: Plant response rating, Kochia
Method in brief: as §1

[8] = test system: barnyardgrass (Echinochloa crus-galli); test: Test A postemergence; conditions: Echinochloa crus-galli, post-emergence, 240 h; for pest or weed control at 125 g/ha: 125 g ai/ha, postemergence, visual injury on 0 to 100 scale (0 no effect, 100 complete control), approx. 10 d, read-out: Barnyardgrass plant response rating; for pest or weed control at 31 g/ha: Postemergence, 31 g ai/ha, visual injury after approx. 10 d, 0 to 100 scale, 0 no effect, 100 complete control, read-out: Plant response rating, Barnyardgrass
Method in brief: as §1

[9] = test system: blackgrass (Alopecurus myosuroides); test: Test A postemergence; conditions: Alopecurus myosuroides, post-emergence, 240 h; for pest or weed control at 125 g/ha: 125 g ai/ha, postemergence, visual injury on 0 to 100 scale (0 no effect, 100 complete control), approx. 10 d, read-out: Blackgrass plant response rating; for pest or weed control at 31 g/ha: Postemergence, 31 g ai/ha, visual injury after approx. 10 d, 0 to 100 scale, 0 no effect, 100 complete control, read-out: Plant response rating, Blackgrass
Method in brief: as §1

corn (Zea mays) = test: Test A postemergence; conditions: Zea mays, post-emergence, 240 h; for plant injury at 125 g/ha: 125 g ai/ha, postemergence, visual injury on 0 to 100 scale (0 no effect, 100 complete control), approx. 10 d, read-out: Corn plant response rating; for Corn plant response rating (crop injury, 0 = no effect, 100 = complete kill) at 31 g/ha: Postemergence, 31 g ai/ha, visual injury after approx. 10 d, 0 to 100 scale, 100 complete control
Method in brief: as §1

[10] = test system: giant foxtail (Setaria faberii); test: Test A postemergence; conditions: Setaria faberi, post-emergence, 240 h; for pest or weed control at 125 g/ha: 125 g ai/ha, postemergence, visual injury on 0 to 100 scale (0 no effect, 100 complete control), approx. 10 d, read-out: Foxtail, Giant plant response rating; for pest or weed control at 31 g/ha: Postemergence, 31 g ai/ha, visual injury after approx. 10 d, 0 to 100 scale, 0 no effect, 100 complete control, read-out: Plant response rating, Foxtail, Giant
Method in brief: as §1

[11] = test system: pigweed (Amaranthus retroflexus); test: Test A postemergence; conditions: Amaranthus retroflexus, post-emergence, 240 h; for pest or weed control at 125 g/ha: 125 g ai/ha, postemergence, visual injury on 0 to 100 scale (0 no effect, 100 complete control), approx. 10 d, read-out: Pigweed plant response rating; for pest or weed control at 31 g/ha: Postemergence, 31 g ai/ha, visual injury after approx. 10 d, 0 to 100 scale, 0 no effect, 100 complete control, read-out: Plant response rating, Pigweed
Method in brief: as §1

[12] = test system: ragweed (common ragweed, Ambrosia elatior); test: Test A postemergence; conditions: Ambrosia artemisiifolia, post-emergence, 240 h; for pest or weed control at 125 g/ha: 125 g ai/ha, postemergence, visual injury on 0 to 100 scale (0 no effect, 100 complete control), approx. 10 d, read-out: Ragweed plant response rating; for pest or weed control at 31 g/ha: Postemergence, 31 g ai/ha, visual injury after approx. 10 d, 0 to 100 scale, 0 no effect, 100 complete control, read-out: Plant response rating, Ragweed
Method in brief: as §1

[13] = test system: ryegrass, Italian (Italian ryegrass, Lolium multiflorum); test: Test A postemergence; conditions: Lolium multiflorum, post-emergence, 240 h; for pest or weed control at 125 g/ha: 125 g ai/ha, postemergence, visual injury on 0 to 100 scale (0 no effect, 100 complete control), approx. 10 d, read-out: Ryegrass, Italian plant response rating; for pest or weed control at 31 g/ha: Postemergence, 31 g ai/ha, visual injury after approx. 10 d, 0 to 100 scale, 0 no effect, 100 complete control, read-out: Plant response rating, Ryegrass, Italian
Method in brief: as §1

[14] = test system: wheat (Triticum aestivum); test: Test A postemergence; conditions: Triticum aestivum, post-emergence, 240 h; for plant injury at 125 g/ha: 125 g ai/ha, postemergence, visual injury on 0 to 100 scale (0 no effect, 100 complete control), approx. 10 d, read-out: Wheat plant response rating; for plant injury at 31 g/ha: Postemergence, 31 g ai/ha, visual injury after approx. 10 d, 0 to 100 scale, 0 no effect, 100 complete control, read-out: Plant response rating, Wheat
Method in brief: as §1

[15] = test system: barnyardgrass (Echinochloa crus-galli); test: Test B flooded paddy test; conditions: Echinochloa crus-galli, 250 g ai/ha, Flood; 0 to 100 scale where 0 is no effect and 100 is complete control; read-out: Barnyardgrass plant response rating
Method in brief: (§2)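 Evaluation by eye, against controls, occurred 13–15 d post-treatment in a greenhouse, using a 0 (no effect) to 100 (complete control) scale. Application was into the paddy water, 3 cm deep over the soil, on 2-leaf plants.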

[16] = test system: ducksalad (Heteranthera limosa); test: Test B flooded paddy test; conditions: Heteranthera limosa, 250 g ai/ha, Flood; 0 to 100 scale where 0 is no effect and 100 is complete control; read-out: Ducksalad plant response rating
Method in brief: as §2

rice (Oryra sativa) = test: Test B flooded paddy test; conditions: Oryza sativa, 250 g ai/ha, Flood; 0 to 100 scale where 0 is no effect and 100 is complete control; read-out: Rice plant response rating
Method in brief: as §2

[17] = test system: sedge, umbrella (small-flower umbrella sedge, Cyperus difformis); test: Test B flooded paddy test; conditions: Cyperus difformis, 250 g ai/ha, Flood; 0 to 100 scale where 0 is no effect and 100 is complete control; read-out: Sedge, Umbrella plant response rating
Method in brief: as §2

CN1C[C@H](c2cc(C(F)F)cs2)[C@@H](C(=O)Nc2cccc(F)c2C#N)C1=O [Compound 1092]
pest or weed control at 31 g/ha (Kochia (Kochia scoparia) [1]): 70%
pest or weed control at 125 g/ha (Kochia (Kochia scoparia) [1]): 0%
pest or weed control at 31 g/ha [2]: 40%
pest or weed control at 125 g/ha [2]: 90%
pest or weed control at 31 g/ha [3]: 90%
pest or weed control at 125 g/ha [3]: 100%
pest or weed control at 31 g/ha [4]: 0%
pest or weed control at 125 g/ha [4]: 0%
pest or weed control at 31 g/ha [5]: 0%
pest or weed control at 125 g/ha [5]: 40%
pest or weed control at 31 g/ha [6]: 0%
pest or weed control at 125 g/ha [6]: 0%
pest or weed control at 125 g/ha (Kochia (Kochia scoparia) [7]): 20%
pest or weed control at 31 g/ha (Kochia (Kochia scoparia) [7]): 0%
pest or weed control at 125 g/ha [8]: 90%
pest or weed control at 31 g/ha [8]: 50%
pest or weed control at 125 g/ha [9]: 20%
pest or weed control at 31 g/ha [9]: 0%
plant injury at 125 g/ha (corn (Zea mays)): 0%
Corn plant response rating (crop injury, 0 = no effect, 100 = complete kill) at 31 g/ha (corn (Zea mays)): 0%
pest or weed control at 125 g/ha [10]: 90%
pest or weed control at 31 g/ha [10]: 30%
pest or weed control at 125 g/ha [11]: 20%
pest or weed control at 31 g/ha [11]: 0%
pest or weed control at 125 g/ha [12]: 50%
pest or weed control at 31 g/ha [12]: 0%
pest or weed control at 125 g/ha [13]: 0%
pest or weed control at 31 g/ha [13]: 0%
plant injury at 125 g/ha [14]: 0%
plant injury at 31 g/ha [14]: 0%
pest or weed control at 250 g/ha [15]: 60%
pest or weed control at 250 g/ha [16]: 85%
pest or weed control at 250 g/ha (rice (Oryra sativa)): 0%
pest or weed control at 250 g/ha [17]: 0%

CN1C[C@H](c2cc(C(F)F)cs2)[C@@H](C(=O)Nc2cccc(C#N)c2F)C1=O [Compound 1093]
pest or weed control at 31 g/ha (Kochia (Kochia scoparia) [1]): 0%
pest or weed control at 125 g/ha (Kochia (Kochia scoparia) [1]): 50%
pest or weed control at 31 g/ha [2]: 40%
pest or weed control at 125 g/ha [2]: 90%
pest or weed control at 31 g/ha [3]: 100%
pest or weed control at 125 g/ha [3]: 100%
pest or weed control at 31 g/ha [4]: 0%
pest or weed control at 125 g/ha [4]: 80%
pest or weed control at 31 g/ha [5]: 0%
pest or weed control at 125 g/ha [5]: 20%
pest or weed control at 31 g/ha [6]: 0%
pest or weed control at 125 g/ha [6]: 0%
pest or weed control at 125 g/ha (Kochia (Kochia scoparia) [7]): 20%
pest or weed control at 31 g/ha (Kochia (Kochia scoparia) [7]): 0%
pest or weed control at 125 g/ha [8]: 80%
pest or weed control at 31 g/ha [8]: 40%
pest or weed control at 125 g/ha [9]: 0%
pest or weed control at 31 g/ha [9]: 0%
plant injury at 125 g/ha (corn (Zea mays)): 0%
Corn plant response rating (crop injury, 0 = no effect, 100 = complete kill) at 31 g/ha (corn (Zea mays)): 0%
pest or weed control at 125 g/ha [10]: 90%
pest or weed control at 31 g/ha [10]: 30%
pest or weed control at 125 g/ha [11]: 20%
pest or weed control at 31 g/ha [11]: 0%
pest or weed control at 125 g/ha [12]: 30%
pest or weed control at 31 g/ha [12]: 0%
pest or weed control at 125 g/ha [13]: 0%
pest or weed control at 31 g/ha [13]: 0%
plant injury at 125 g/ha [14]: 0%
plant injury at 31 g/ha [14]: 0%
pest or weed control at 250 g/ha [15]: 60%
pest or weed control at 250 g/ha [16]: 80%
pest or weed control at 250 g/ha (rice (Oryra sativa)): 0%
pest or weed control at 250 g/ha [17]: 0%
